Experiments:
DPP-IV = target: T1, DPP-IV (Homo sapiens, UniProt P27487); test: DPP-IV assay with Caco-2 cell extract as DPP IV source, AFC substrate, fluorescence; format: biochemical; conditions: extract of human colon carcinoma cell line Caco-2; substrate 100 μM; 60 minutes at ambient temperature; read-out: DPP IV inhibition IC50
T1 construct: an extract of the human colon carcinoma cell line Caco-2 is used as the DPP IV source; endogenous in cells; host or cells: Caco-2 (human colon carcinoma), differentiated to induce DPP-IV expression; Nonidet-P40 solubilised extract
Protocol: The cell extract was obtained from cells solubilised in a buffer (10 mM Tris HCl, 0.15 M NaCl, 0.04 t.i.u. aprotinin, 0.5% Nonidet-P40, pH 8.0) by centrifugation at 35,000 g for 30 minutes at 4° C. (to remove cell debris).
The DPP-IV assay was carried out as follows:
50 μl of substrate solution (AFC; AFC is amido-4-trifluoromethylcoumarin), final concentration 100 μM, were placed in black microtitre plates. 20 μl of assay buffer (final concentrations 50 mM Tris HCl pH 7.8, 50 mM NaCl, 1% DMSO) was pipetted in. The reaction was started by the addition of 30 μl of solubilised Caco-2 protein (final concentration 0.14 μg of protein per well). The test substances under investigation were typically added prediluted to 20 μl, while the volume of assay buffer was then reduced accordingly. The reaction was carried out at ambient temperature, the incubation period was 60 minutes. […] Dummy values (corresponding to 0% activity) were obtained in mixtures with no Caco-2 protein (volume replaced by assay buffer), control values (corresponding to 100% activity) were obtained in mixtures without any added substance.

rats = test: Tolerability: behavior of rats after oral administration; format: in vivo; conditions: oral administration of 10 mg/kg

T1 sequence (P27487 whole entry): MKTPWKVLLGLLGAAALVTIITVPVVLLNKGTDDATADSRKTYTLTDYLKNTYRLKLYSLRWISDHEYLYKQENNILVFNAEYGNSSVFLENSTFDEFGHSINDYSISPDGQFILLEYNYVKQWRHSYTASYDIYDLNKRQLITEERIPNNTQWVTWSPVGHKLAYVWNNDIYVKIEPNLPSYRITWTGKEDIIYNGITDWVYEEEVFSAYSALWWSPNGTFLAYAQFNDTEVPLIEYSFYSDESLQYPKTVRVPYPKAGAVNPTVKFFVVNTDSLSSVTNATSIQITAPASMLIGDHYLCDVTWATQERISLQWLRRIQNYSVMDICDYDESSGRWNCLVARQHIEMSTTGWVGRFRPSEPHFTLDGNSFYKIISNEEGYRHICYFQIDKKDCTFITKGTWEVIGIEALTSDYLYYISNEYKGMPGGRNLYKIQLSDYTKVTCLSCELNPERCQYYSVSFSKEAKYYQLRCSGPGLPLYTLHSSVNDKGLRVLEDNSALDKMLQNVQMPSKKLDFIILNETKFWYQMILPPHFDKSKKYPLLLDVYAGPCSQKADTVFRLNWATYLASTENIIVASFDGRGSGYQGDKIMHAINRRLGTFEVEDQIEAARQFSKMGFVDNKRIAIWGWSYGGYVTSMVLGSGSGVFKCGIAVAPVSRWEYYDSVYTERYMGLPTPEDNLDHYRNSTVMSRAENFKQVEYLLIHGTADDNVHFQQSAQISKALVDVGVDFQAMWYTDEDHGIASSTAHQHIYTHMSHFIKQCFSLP

Row | SMILES | IC50 (DPP-IV) | changes in the behavior of rats (tolerability) (rats)
1 | CC#CCn1c(C(=O)NCc2nc3ccccc3c3ccccc23)cnc1N1CCCC(N)C1 (centres unmarked) [1(2), 1-(but-2-ynyl)-2-(3-amino-piperidin-1-yl)-5-(phenanthridin-6-ylmethylaminocarbonyl)-1H-imidazole] | 41 nM | –
2 | CC(C)=CCn1c(C(=O)NCc2cccc3ccccc23)nnc1N1CCCNCC1 [2(2), 3-([1,4]diazepan-1-yl)-4-(3-methyl-but-2-enyl)-5-(naphth-1-ylmethylaminocarbonyl)-4H-[1,2,4]triazole] | 386 nM | –
3 | CC(C)=CCn1c(C(=O)NCc2cccc3ccccc23)nnc1N1CCNCC1 [Example 2, 3-(piperazin-1-yl)-4-(3-methyl-but-2-enyl)-5-(naphth-1-ylmethylaminocarbonyl)-4H-[1,2,4]triazole] | 367 nM | –
4 | CC#CCn1c(C(=O)NCc2ccc3ncccc3c2)nnc1N1CCCC(N)C1 (centres unmarked) [4(2), 3-(3-amino-piperidin-1-yl)-4-(but-2-ynyl)-5-(quinolin-6-ylmethylaminocarbonyl)-4H-[1,2,4]triazole] | 36 nM | –
5 | CC(C)=CCn1c(C(=O)NCc2cccc3ccccc23)nnc1N1CCCC(N)C1 (centres unmarked) [Example 3, 3-(3-amino-piperidin-1-yl)-4-(3-methyl-but-2-enyl)-5-(naphth-1-ylmethylaminocarbonyl)-4H-[1,2,4]triazole] | 101 nM | –
6 | NC1CCCN(c2nnc(C(=O)NCc3cccc4ccccc34)n2Cc2ccccc2)C1 (centres unmarked) [3(1), 3-(3-amino-piperidin-1-yl)-4-benzyl-5-(naphth-1-ylmethylaminocarbonyl)-4H-[1,2,4]triazole] | 101 nM | –
7 | CC#CCn1c(C(=O)NCc2nc(C)cc3ccccc23)nnc1N1CCCC(N)C1 (centres unmarked) [Example 4(1), 3-(3-amino-piperidin-1-yl)-4-(but-2-ynyl)-5-(3-methyl-isoquinolin-1-ylmethylaminocarbonyl)-4H-[1,2,4]triazole] | – | no changes in the behavior of rats could be detected
8 | NC1CCCN(c2nnc(C(=O)NCc3cccc4ccccc34)n2Cc2ccccc2Cl)C1 (centres unmarked) [Example 4, 3-(3-amino-piperidin-1-yl)-4-(2-chloro-benzyl)-5-(naphth-1-ylmethylaminocarbonyl)-4H-[1,2,4]triazole] | 382 nM | –
